ChEMBL document CHEMBL4118117, “Synthesis, biological evaluation, and molecular docking investigation of benzhydrol- and indole-based dual PPAR-γ/FFAR1 agonists” (Bioorg Med Chem Lett, 2018)
Activity calls are given as the source filed them. No cut-off for these calls is given here.

Tests used:
[1] = molecular target: T1, Peroxisome proliferator-activated receptor gamma (Homo sapiens) (UniProt P37231); assay: Transactivation of recombinant human N-terminal GAL4-DBD fused PPARgamma LBD expressed in reporter cells at 30 uM measured after 24 hrs by luciferase reporter gene assay relative to rosiglitazone; format: cell-based
T1 sequence (whole entry): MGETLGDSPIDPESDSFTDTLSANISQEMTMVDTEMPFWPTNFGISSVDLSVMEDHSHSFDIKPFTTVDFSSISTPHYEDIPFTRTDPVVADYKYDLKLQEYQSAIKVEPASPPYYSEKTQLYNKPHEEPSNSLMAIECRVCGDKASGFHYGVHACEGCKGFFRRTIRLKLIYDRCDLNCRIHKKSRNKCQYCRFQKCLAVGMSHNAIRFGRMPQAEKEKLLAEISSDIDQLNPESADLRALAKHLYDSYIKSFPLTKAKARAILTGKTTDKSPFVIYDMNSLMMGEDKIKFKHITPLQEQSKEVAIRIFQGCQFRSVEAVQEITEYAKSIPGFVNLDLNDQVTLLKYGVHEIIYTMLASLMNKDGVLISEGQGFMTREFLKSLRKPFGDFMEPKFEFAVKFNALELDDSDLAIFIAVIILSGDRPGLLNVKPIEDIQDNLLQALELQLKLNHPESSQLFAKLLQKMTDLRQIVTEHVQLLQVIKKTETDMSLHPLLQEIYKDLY

[2] = molecular target: Free fatty acid receptor 1 (Homo sapiens, UniProt O14842); assay: Transactivation of recombinant human FFAR1 expressed in CHOK1 cells co-expressing Galpha15 assessed as increase in calcium flux measured after 20 secs for 100 secs by FLIPR assay; format: functional, cell-based
[3] = molecular target: T2, Peroxisome proliferator-activated receptor gamma (Homo sapiens, UniProt P37231); assay: Transactivation of recombinant human N-terminal GAL4-DBD fused PPARgamma LBD expressed in reporter cells measured after 24 hrs by luciferase reporter gene assay; format: cell-based
T2 sequence (P37231 whole entry): T1 sequence (whole entry)

[4] = molecular target: T1, Peroxisome proliferator-activated receptor gamma (Homo sapiens); assay: Transactivation of recombinant human N-terminal GAL4-DBD fused PPARgamma LBD expressed in reporter cells at 30 uM measured after 24 hrs by luciferase reporter gene assay relative to control; format: cell-based
[5] = system: Mus musculus; assay: Antihyperglycemic activity in established high fat diet-induced obese mouse assessed as reduction in blood glucose level at 10 mg/kg, iv administered once daily for 14 days measured at 1 hr post dose on day 7 and 14 during compound dosing; format: functional, organism-based
[6] = system: Mus musculus; assay: Antihyperglycemic activity in established high fat diet-induced obese mouse assessed as reduction in body weight at 10 mg/kg, iv administered once daily for 14 days; format: functional, organism-based
[7] = system: Mus musculus; assay: Antihyperglycemic activity in established high fat diet-induced obese mouse assessed as reduction in blood glucose level at 10 mg/kg, iv administered once daily for 14 days measured at 1 hr post dose on day 7 and 14 during compound dosing in presence of glimepride; format: functional, organism-based
[8] = system: Mus musculus; assay: Antihyperlipidemic activity in established high fat diet-induced obese mouse assessed as reduction in plasma triglyceride level at 10 mg/kg, iv administered once daily for 14 days measured at 1 hr post dose on day 7 and 14 during compound dosing by colorimetric method relative to rosiglitazone; format: functional
[9] = system: Mus musculus; assay: Antihyperglycemic activity in established high fat diet-induced obese mouse assessed as reduction in blood glucose level at 10 mg/kg, iv administered once daily for 14 days measured at 1 hr post dose on day 7 and 14 during compound dosing relative to rosiglitazone; format: functional
[10] = system: Mus musculus; assay: Antihyperglycemic activity in established high fat diet-induced obese mouse assessed as reduction in blood glucose level at 10 mg/kg, iv administered once daily for 14 days measured at 1 hr post dose on day 7 and 14 during compound dosing in presence of rosiglitazone; format: functional, organism-based

Chain of Free fatty acid receptor 1 (O14842 whole entry, the tested form may be a part): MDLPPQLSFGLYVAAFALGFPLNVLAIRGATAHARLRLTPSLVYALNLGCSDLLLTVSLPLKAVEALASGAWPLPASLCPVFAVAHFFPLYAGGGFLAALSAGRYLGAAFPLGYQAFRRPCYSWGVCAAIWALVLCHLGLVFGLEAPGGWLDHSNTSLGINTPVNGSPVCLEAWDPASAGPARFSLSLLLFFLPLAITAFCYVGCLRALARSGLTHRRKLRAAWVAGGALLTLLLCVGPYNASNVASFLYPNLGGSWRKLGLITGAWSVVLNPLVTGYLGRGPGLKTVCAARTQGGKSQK

| SMILES | Activity [1] | EC50 [2] | EC50 ([2]; read-out: EC50) [µM] | fold change (FC) [4] | also measured |
| --- | --- | --- | --- | --- | --- |
| O=C1NC(=O)C(Cc2ccc(OCCn3c(CO)nc4ccccc43)cc2)S1 (stereo not drawn) | 39.5% | Not Active |  |  |  |
| CCCCC/C=C/C/C=C/C/C=C/CCCCC(=O)O |  |  | 0.24 |  |  |
| O=C1NC(=O)C(Cc2ccc(OCCn3ccc4ccccc43)cc2)S1 (stereo not drawn) | 130% |  | 2.19 | 56.1 | EC50 [3]: 3.94 µM; Activity [5]: Active |
| CN(CCOc1ccc(CC2SC(=O)NC2=O)cc1)c1ccccn1 (stereo not drawn) |  |  |  | 43.1 | Activity [6]: Active; Activity [7]: Active |
| COc1ccc(C(OCCOc2ccc(CC3SC(=O)NC3=O)cc2)c2ccccc2)cc1 (stereo not drawn) | 12.1% |  | 17.8 |  | Activity [5]: Active; fold change (FC) [8]: 5.5 |
| O=C1NC(=O)C(Cc2ccc(OCCn3cnc4ccccc43)cc2)S1 (stereo not drawn) | 69.8% |  | 4.31 | 29.7 | EC50 [3]: 2.32 µM |
| Cc1ccccc1C(OCCOc1ccc(CC2SC(=O)NC2=O)cc1)c1ccccc1 (stereo not drawn) | 4.4% | Not Active |  |  |  |
| O=C1NC(=O)C(Cc2ccc(OCCOC(c3ccccc3)c3ccc(Cl)cc3)cc2)S1 (stereo not drawn) | 10.7% | Not Active |  |  |  |
| O=C1NC(=O)C(Cc2ccc(OCCOC(c3ccccc3)c3ccc(C(F)(F)F)cc3)cc2)S1 (stereo not drawn) | inactive |  | 11.3 | > 0.01 |  |
| O=C1NC(=O)C(Cc2ccc(OCCOc3cccc4ccccc34)cc2)S1 (stereo not drawn) | 13.3% | Not Active |  |  |  |
| O=C1NC(=O)C(Cc2ccc(OCCn3ccc4ccc(Cl)cc43)cc2)S1 (stereo not drawn) | 83.7% |  | 5.06 |  | fold change (FC) [9]: 6; EC50 [3]: 4.51 µM; Activity [6]: Active; Activity [5]: Active; fold change (FC) [8]: 3.5 |
| CCC1=C(C)CN(C(=O)NCCc2ccc(S(=O)(=O)NC(=O)N[C@H]3CC[C@H](C)CC3)cc2)C1=O |  |  |  |  | Activity [6]: Active; Activity [10]: Active |
| O=C1NC(=O)C(Cc2ccc(OCCOC(c3ccccc3)c3ccccc3)cc2)S1 (stereo not drawn) | 9.3% |  | 21.3 | 4 | Activity [5]: Active |
| O=C1NC(=O)C(Cc2ccc(OCCn3c(-c4ccccc4)cc4ccccc43)cc2)S1 (stereo not drawn) | 34.9% | Not Active |  |  |  |
